Data as given in patent US9241488B2, “Azole derivative, method for producing azole derivative, and intermediate compound” (KUREHA CORPORATION, priority 2011, dated 2016).
Like-named read-outs stand apart in the source and are kept apart here.

Key:
[1] = tested on: wheat leaf blight-causing microorganisms; test: Anti-bacterial effect on wheat leaf blight-causing microorganisms (PDA plate, mycelial growth inhibition); type: cell-based, Septoria tritici; conditions: 1.25 mg/L in PDA plate medium, 25° C., 14 days
Experimental: In Test Examples, an anti-bacterial effect of a compound in accordance with the present invention on the wheat leaf blight-causing microorganisms was tested, and was compared with the anti-bacterial effect of a comparative compound (1).
A dimethyl sulfoxide solution (0.6 ml) containing a compound in accordance with the present invention was added to a PDA medium (potato dextrose agar medium) (60 ml) having about 60° C., and the resultant mixture was mixed thoroughly in a 100-ml conical flask. The mixture was poured into a dish, and was solidified. […]
On the other hand, a subject microorganism previously cultured on a plate medium was cut out with use of a cork borer whose diameter was 4 mm, and the wheat leaf blight-causing microorganism on the plate medium thus cut out was inoculated to the chemical-containing plate medium described above. After such inoculation, the chemical-containing plate medium was incubated at 25° C. for 14 days, and then diameters of its flora were measured. A % mycelial growth inhibition was calculated with use of the formula. R=100(dc−dt)/dc (where R=% mycelial extension inhibition, dc=flora diameter in untreated plate, dt=flora diameter in treated plate)
The results obtained as described above were evaluated on a five-point scale according to the following criteria.
• 5: % Mycerial growth inhibition of 80% or higher • 4: % Mycerial growth inhibition of less than 80 to 60% or higher • 3: % Mycerial growth inhibition of less than 60 to 40% or higher • 2: % Mycerial growth inhibition of less than 40 to 20% or higher • 1: % Mycerial growth inhibition of less than 20%

[2] = tested on: Wheat fusarium blight (Fusarium graminearum); type: cell-based
[3] = tested on: Wheat eye spot (Pseudocercoporella herpotrichoides); test: Anti-bacterial effect on various microorganisms (plate medium), P.h; type: cell-based
[4] = tested on: Wheat Septoria nodorum blotch microorganism (Phaeosphaeria nodorum); test: Anti-bacterial effect on various microorganisms (plate medium), P.n; type: cell-based
[5] = tested on: Rice blast (Pyricularia oryzae); type: cell-based
[6] = tested on: Alternaria blotch (Alternaria alternata); test: Anti-bacterial effect on various microorganisms (plate medium), A.m; type: cell-based
[7] = tested on: Rice bacterial seeding blight (Rhizopus oryzae); test: Anti-bacterial effect on various microorganisms (plate medium), R.o; type: cell-based
[8] = tested on: Barley leaf blotch (Rhynchosporium secalis); test: Anti-bacterial effect on various microorganisms (plate medium), R. sec; type: cell-based
[9] = tested on: Gray mold (Botritis cinerea); test: Anti-bacterial effect on various microorganisms (plate medium), B.c; type: cell-based
[10] = tested on: Sclerotinia rot (Sclerotinia sclerotiorum); test: Anti-bacterial effect on various microorganisms (plate medium), S.s; type: cell-based
[11] = tested on: wheat-brown-rust-causing microorganisms; test: Controlling effect on wheat brown rust (spray, pot test); type: in vivo, Puccinia recondita; conditions: 1 mg/L sprayed at 1,000 L/ha, wheat NORIN No. 61, 9 to 14 days after inoculation
Experimental: Onto a wheat plant (cultivar: NORIN No. 61) grown to the two-leaf stage with use of a square plastic pot (6 cm×6 cm), a wettable formulation such as Formulation Example 1 which was diluted and suspended in water at a concentration of 1 mg/L was sprayed at a rate of 1,000 L/ha. The sprayed leaves were air-dried, and inoculated with spore suspension of wheat-brown-rust-causing microorganisms (adjusted at 200 spores/vision, […] was added at 60 ppm) by spraying, and kept at 25° C. and a high humidity for 48 hours. Thereafter, the plant was kept in a greenhouse. Nine to fourteen days after inoculation, the wheat brown rust lesion degree was evaluated. The protective value was calculated by the following equation. Protective value (%)=(1-mean lesion degree in sprayed plot/mean lesion degree in unsprayed plot)×100 [table] [table]

[12] = tested on: Cucumber fusarium wilt (Fusarium oxysporum); test: Anti-bacterial effect on various microorganisms (plate medium), F.c; type: cell-based
[13] = tested on: Barley loose smut (Ustilago nuda); test: Anti-bacterial effect on various microorganisms (plate medium), U.n; type: cell-based
[14] = tested on: Wheat pink snow mold (Microdochium nivale); test: Anti-bacterial effect on various microorganisms (plate medium), M.n; type: cell-based
[15] = tested on: Rice bakanae disease (Giberella fujikuroi); test: Anti-bacterial effect on various microorganisms (plate medium), G.f; type: cell-based

Row | SMILES | Growth inhibition grade [1] | Growth inhibition grade F.g ([2]; 1.25 mg/L) | Growth inhibition grade F.g ([2]; 5 mg/L) | Growth inhibition grade P.h ([3]; 1.25 mg/L) | Growth inhibition grade P.h ([3]; 5 mg/L) | Growth inhibition grade P.n ([4]; 1.25 mg/L) | Growth inhibition grade P.n ([4]; 5 mg/L) | Growth inhibition grade P.o ([5]; 1.25 mg/L) | Growth inhibition grade P.o ([5]; 5 mg/L) | Growth inhibition grade A.m ([6]; 1.25 mg/L) | Growth inhibition grade A.m ([6]; 5 mg/L) | Growth inhibition grade R.o ([7]; 1.25 mg/L) | Growth inhibition grade R.o ([7]; 5 mg/L) | Growth inhibition grade R. sec ([8]; 1.25 mg/L) | Growth inhibition grade R. sec ([8]; 5 mg/L) | Growth inhibition grade B.c ([9]; 1.25 mg/L) | Growth inhibition grade B.c ([9]; 5 mg/L) | Growth inhibition grade S.s ([10]; 1.25 mg/L) | Growth inhibition grade S.s ([10]; 5 mg/L) | Protective value [11] | also measured
1 | COC[C@]1(CBr)CC[C@@H](Cc2ccccc2)[C@]1(O)Cn1cncn1 (racemic) [Compound I-203, (1RS,2RS,5SR)-5-benzyl-2-bromomethyl-2-methoxymethyl-1H-[1,2,4]triazole-1-ylmethylcyclopentanol] | 4 (% Mycerial growth inhibition of less than 80 to 60% or higher) | 5 (% Mycerial growth inhibition of 80% or higher) | 5 (% Mycerial growth inhibition of 80% or higher) | 4 (% Mycerial growth inhibition of less than 80 to 60% or higher) | 5 (% Mycerial growth inhibition of 80% or higher) | 4 (% Mycerial growth inhibition of less than 80 to 60% or higher) | 5 (% Mycerial growth inhibition of 80% or higher) | 5 (% Mycerial growth inhibition of 80% or higher) | 5 (% Mycerial growth inhibition of 80% or higher) | 4 (% Mycerial growth inhibition of less than 80 to 60% or higher) | 5 (% Mycerial growth inhibition of 80% or higher) | 4 (% Mycerial growth inhibition of less than 80 to 60% or higher) | 5 (% Mycerial growth inhibition of 80% or higher) | 5 (% Mycerial growth inhibition of 80% or higher) | 5 (% Mycerial growth inhibition of 80% or higher) | 5 (% Mycerial growth inhibition of 80% or higher) | 5 (% Mycerial growth inhibition of 80% or higher) | 5 (% Mycerial growth inhibition of 80% or higher) | 5 (% Mycerial growth inhibition of 80% or higher) | 4 (61 to 80) | Growth inhibition grade F.c ([12]; 1.25 mg/L): 5 (% Mycerial growth inhibition of 80% or higher); Growth inhibition grade F.c ([12]; 5 mg/L): 5 (% Mycerial growth inhibition of 80% or higher); Growth inhibition grade U.n ([13]; 1.25 mg/L): 5 (% Mycerial growth inhibition of 80% or higher); Growth inhibition grade U.n ([13]; 5 mg/L): 5 (% Mycerial growth inhibition of 80% or higher); Growth inhibition grade M.n ([14]; 1.25 mg/L): 5 (% Mycerial growth inhibition of 80% or higher); Growth inhibition grade M.n ([14]; 5 mg/L): 5 (% Mycerial growth inhibition of 80% or higher); Growth inhibition grade G.f ([15]; 1.25 mg/L): 5 (% Mycerial growth inhibition of 80% or higher); Growth inhibition grade G.f ([15]; 5 mg/L): 5 (% Mycerial growth inhibition of 80% or higher)
2 | CCOC[C@]1(CCl)CC[C@@H](Cc2ccc(F)cc2)[C@]1(O)Cn1cncn1 (racemic) [Compound I-226, (1RS,2RS,5SR)-5-(4-fluorobenzyl)-2-chloromethyl-2-ethoxymethyl-1H-[1,2,4]triazole-1-ylmethylcyclopentanol] | 5 (% Mycerial growth inhibition of 80% or higher) | 5 (% Mycerial growth inhibition of 80% or higher) | 5 (% Mycerial growth inhibition of 80% or higher) | 4 (% Mycerial growth inhibition of less than 80 to 60% or higher) | 5 (% Mycerial growth inhibition of 80% or higher) | 5 (% Mycerial growth inhibition of 80% or higher) | 5 (% Mycerial growth inhibition of 80% or higher) | 5 (% Mycerial growth inhibition of 80% or higher) | 5 (% Mycerial growth inhibition of 80% or higher) | 4 (% Mycerial growth inhibition of less than 80 to 60% or higher) | 5 (% Mycerial growth inhibition of 80% or higher) | 5 (% Mycerial growth inhibition of 80% or higher) | 5 (% Mycerial growth inhibition of 80% or higher) | 5 (% Mycerial growth inhibition of 80% or higher) | 5 (% Mycerial growth inhibition of 80% or higher) | 5 (% Mycerial growth inhibition of 80% or higher) | 5 (% Mycerial growth inhibition of 80% or higher) | 5 (% Mycerial growth inhibition of 80% or higher) | 5 (% Mycerial growth inhibition of 80% or higher) | 4 (61 to 80) | Growth inhibition grade F.c ([12]; 1.25 mg/L): 5 (% Mycerial growth inhibition of 80% or higher); Growth inhibition grade F.c ([12]; 5 mg/L): 5 (% Mycerial growth inhibition of 80% or higher); Growth inhibition grade U.n ([13]; 1.25 mg/L): 5 (% Mycerial growth inhibition of 80% or higher); Growth inhibition grade U.n ([13]; 5 mg/L): 5 (% Mycerial growth inhibition of 80% or higher); Growth inhibition grade M.n ([14]; 1.25 mg/L): 5 (% Mycerial growth inhibition of 80% or higher); Growth inhibition grade M.n ([14]; 5 mg/L): 5 (% Mycerial growth inhibition of 80% or higher); Growth inhibition grade G.f ([15]; 1.25 mg/L): 5 (% Mycerial growth inhibition of 80% or higher); Growth inhibition grade G.f ([15]; 5 mg/L): 5 (% Mycerial growth inhibition of 80% or higher)
3 | CCOC[C@]1(CCl)CC[C@@H](Cc2ccccc2)[C@]1(O)Cn1cncn1 (racemic) [Compound I-234, (1RS,2RS,5SR)-5-benzyl-2-chloromethyl-2-ethoxymethyl-1H-[1,2,4]triazole-1-ylmethylcyclopentanol] | 5 (% Mycerial growth inhibition of 80% or higher) | 5 (% Mycerial growth inhibition of 80% or higher) | 5 (% Mycerial growth inhibition of 80% or higher) | 4 (% Mycerial growth inhibition of less than 80 to 60% or higher) | 5 (% Mycerial growth inhibition of 80% or higher) | 5 (% Mycerial growth inhibition of 80% or higher) | 5 (% Mycerial growth inhibition of 80% or higher) | 5 (% Mycerial growth inhibition of 80% or higher) | 5 (% Mycerial growth inhibition of 80% or higher) | 4 (% Mycerial growth inhibition of less than 80 to 60% or higher) | 5 (% Mycerial growth inhibition of 80% or higher) | 5 (% Mycerial growth inhibition of 80% or higher) | 5 (% Mycerial growth inhibition of 80% or higher) | 5 (% Mycerial growth inhibition of 80% or higher) | 5 (% Mycerial growth inhibition of 80% or higher) | 5 (% Mycerial growth inhibition of 80% or higher) | 5 (% Mycerial growth inhibition of 80% or higher) | 5 (% Mycerial growth inhibition of 80% or higher) | 5 (% Mycerial growth inhibition of 80% or higher) | 4 (61 to 80) | Growth inhibition grade F.c ([12]; 1.25 mg/L): 5 (% Mycerial growth inhibition of 80% or higher); Growth inhibition grade F.c ([12]; 5 mg/L): 5 (% Mycerial growth inhibition of 80% or higher); Growth inhibition grade U.n ([13]; 1.25 mg/L): 5 (% Mycerial growth inhibition of 80% or higher); Growth inhibition grade U.n ([13]; 5 mg/L): 5 (% Mycerial growth inhibition of 80% or higher); Growth inhibition grade M.n ([14]; 1.25 mg/L): 5 (% Mycerial growth inhibition of 80% or higher); Growth inhibition grade M.n ([14]; 5 mg/L): 5 (% Mycerial growth inhibition of 80% or higher); Growth inhibition grade G.f ([15]; 1.25 mg/L): 5 (% Mycerial growth inhibition of 80% or higher); Growth inhibition grade G.f ([15]; 5 mg/L): 5 (% Mycerial growth inhibition of 80% or higher)
